# According to US6124269A, “2-Halo-6-O-substituted ketolide derivatives” (priority 1998, dated 2000):
# Key:
# Assay type in all cases: cell-based
# [1] = system: Staphylococcus epidermidis 3519; assay: In vitro agar dilution MIC, organism code HH; conditions: Table 1B, in µg/mL (unit assumed)
# Procedure, shortened: (§1)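 Twelve-plate agar dilution series in Brain Heart Infusion agar. Inoculum diluted 1:100, or 1:10 for streptococci and other slow growers. Read after 20 to 24 hours at 35-37° C.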
# [2] = system: Enterococcus faecium ATCC 8043; assay: In vitro agar dilution MIC, organism code II; conditions: Table 1B, unit assumed
# Procedure, shortened: as §1
# [3] = system: Staphylococcus aureus A-5278; assay: In vitro agar dilution MIC, organism code CC; conditions: Table 1B, unit assumed
# Procedure, shortened: as §1
# [4] = system: Streptococcus pneumoniae GYR 1171; assay: In vitro agar dilution MIC, organism code YY; conditions: Table 1B, unit assumed
# Procedure, shortened: as §1
# [5] = system: Nocardia asteroides ATCC 9970; assay: In vitro agar dilution MIC, organism code VV; conditions: Table 1B, in µg/mL (unit assumed)
# Procedure, shortened: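 Agar dilution was run in BHI agar with twelve serial compound dilutions, using a replicator-spotted 1:100 inoculum (1:10 for streptococci). Plates were incubated 20-24 h at 35-37 °C with erythromycin A as class control. MIC was the lowest concentration giving no growth, slight haze or sparse colonies.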
# [6] = system: Staphylococcus aureus ATCC 6538P; assay: In vitro agar dilution MIC, organism code AA; conditions: Table 1B, unit assumed
# Procedure, shortened: as §1
# [7] = system: Staphylococcus aureus 1775; assay: In vitro agar dilution MIC, organism code GG; conditions: Table 1B, unit assumed
# Procedure, shortened: as §1
# [8] = system: Streptococcus pyogenes EES61; assay: In vitro agar dilution MIC, organism code LL; conditions: Table 1B, unit assumed
# Procedure, shortened: as §1
# [9] = system: Haemophilis influenzae DILL AMP R; assay: In vitro agar dilution MIC, organism code WW; conditions: Table 1B, unit assumed
# Procedure, shortened: as §1
# [10] = system: Mycobacterium smegmatis ATCC 114; assay: In vitro agar dilution MIC, organism code UU; conditions: Table 1B, in µg/mL (unit assumed)
# Procedure, shortened: as §1
# [11] = system: Staphylococcus aureus CMX 553; assay: In vitro agar dilution MIC, organism code FF; conditions: Table 1B, unit assumed
# Procedure, shortened: as §1
# [12] = system: Micrococcus luteus ATCC 4698; assay: In vitro agar dilution MIC, organism code PP; conditions: Table 1B, in µg/mL (unit assumed)
# Procedure, shortened: as §1
# [13] = system: Staphylococcus aureus A5177; assay: In vitro agar dilution MIC, organism code BB; conditions: Table 1B, in µg/mL (unit assumed)
# Procedure, shortened: as §1
# [14] = system: Streptococcus agalactiae CMX 508; assay: In vitro agar dilution MIC, organism code KK; conditions: Table 1B, unit assumed
# Procedure, shortened: as §1
# [15] = system: Escherichia coli SS; assay: In vitro agar dilution MIC, organism code RR; conditions: Table 1B, in µg/mL (unit assumed)
# Procedure, shortened: as §1
# [16] = system: Streptococcus pyogenes 930; assay: In vitro agar dilution MIC, organism code MM; conditions: Table 1B, unit assumed
# Procedure, shortened: as §1
# [17] = system: Streptococcus bovis A-5169; assay: In vitro agar dilution MIC, organism code JJ; conditions: Table 1B, unit assumed
# Procedure, shortened: as §1
# [18] = system: Micrococcus luteus ATCC 9341; assay: In vitro agar dilution MIC, organism code OO; conditions: Table 1B, unit assumed
# Procedure, shortened: as §1
# [19] = system: Streptococcus pneumoniae 5649; assay: In vitro agar dilution MIC, organism code ZZA; conditions: Table 1B, unit assumed
# Procedure, shortened: as §1
# [20] = system: Escherichia coli DC-2; assay: In vitro agar dilution MIC, organism code SS; conditions: Table 1B, unit assumed
# Procedure, shortened: as §1
# [21] = system: Streptococcus pyogenes PIU 2548; assay: In vitro agar dilution MIC, organism code NN; conditions: Table 1B, unit assumed
# Procedure, shortened: as §1
# [22] = system: Candida albicans CCH 442; assay: In vitro agar dilution MIC, organism code TT; conditions: Table 1B, unit assumed
# Procedure, shortened: as §1
# [23] = system: Streptococcus pneumoniae 5979; assay: In vitro agar dilution MIC, organism code ZZ; conditions: Table 1B, unit assumed
# Procedure, shortened: as §1
# [24] = system: Staphylococcus aureus CMX 642A; assay: In vitro agar dilution MIC, organism code DD; conditions: Table 1B, unit assumed
# Procedure, shortened: as §1
# [25] = system: Staphylococcus aureus NCTC10649M; assay: In vitro agar dilution MIC, organism code EE; conditions: Table 1B, unit assumed
# Procedure, shortened: as §1
# [26] = system: Streptococcus pneumoniae ATCC 6303; assay: In vitro agar dilution MIC, organism code XX; conditions: Table 1B, unit assumed
# Procedure, shortened: as §1
# [27] = system: Escherichia coli JUHL; assay: In vitro agar dilution MIC, organism code QQ; conditions: Table 1B, in µg/mL (unit assumed)
# Procedure, shortened: as §1
Compound,MIC [1],MIC [2],MIC [3],MIC [4],MIC [5],MIC [6],MIC [7],MIC [8],MIC [9],MIC [10],MIC [11],MIC [12],MIC [13],MIC [14],MIC [15],MIC [16],MIC [17],MIC [18],MIC [19],MIC [20],also measured
CC[C@H]1OC(=O)[C@@](C)(F)C(=O)[C@H](C)[C@@H](O[C@@H]2O[C@H](C)C[C@H](N(C)C)[C@H]2O)[C@](C)(OC/C=C/c2cnc3ccc(C=O)cc3c2)C[C@@H](C)C(=O)[C@H](C)[C@H]2NC(=O)O[C@@]21C [Example 17],0.1,0.05 µg/mL,> 100 µg/mL,0.015 µg/mL,0.02,0.05 µg/mL,> 100 µg/mL,0.02 µg/mL,2 µg/mL,0.39,0.1 µg/mL,0.05,0.1,0.02 µg/mL,0.78,0.78 µg/mL,0.01 µg/mL,0.02 µg/mL,0.5 µg/mL,100 µg/mL,MIC [21]: 0.2 µg/mL; MIC [22]: > 100 µg/mL; MIC [23]: 1 µg/mL; MIC [24]: 0.1 µg/mL; MIC [25]: 0.2 µg/mL; MIC [26]: 0.03 µg/mL; MIC [27]: 100
C=CCO[C@]1(C)C[C@@H](C)C(=O)[C@H](C)[C@H]2NC(=O)O[C@]2(C)[C@@H](CC)OC(=O)[C@@](C)(F)C(=O)[C@H](C)[C@H]1O[C@@H]1O[C@H](C)C[C@H](N(C)C)[C@H]1O [Example 4],0.78,0.2 µg/mL,> 100 µg/mL,0.03 µg/mL,0.39,0.78 µg/mL,> 100 µg/mL,0.2 µg/mL,8 µg/mL,6.2,0.78 µg/mL,0.78,0.78,0.2 µg/mL,0.78,> 100 µg/mL,0.2 µg/mL,0.39 µg/mL,0.25 µg/mL,> 100 µg/mL,MIC [21]: 0.39 µg/mL; MIC [22]: > 100 µg/mL; MIC [23]: > 128 µg/mL; MIC [24]: 0.78 µg/mL; MIC [25]: 0.78 µg/mL; MIC [26]: 0.06 µg/mL; MIC [27]: > 100
CC[C@H]1OC(=O)[C@@](C)(F)C(=O)[C@H](C)[C@@H](O[C@@H]2O[C@H](C)C[C@H](N(C)C)[C@H]2O)[C@](C)(OC/C=C/c2cnc3ccc(C(N)=O)cc3c2)C[C@@H](C)C(=O)[C@H](C)[C@H]2NC(=O)O[C@@]21C [Example 15],0.05,0.05 µg/mL,> 100 µg/mL,≤ 0.004 µg/mL,0.05,0.05 µg/mL,> 100 µg/mL,0.01 µg/mL,4 µg/mL,0.39,0.05 µg/mL,0.05,0.05,0.01 µg/mL,0.2,0.1 µg/mL,0.01 µg/mL,0.01 µg/mL,0.25 µg/mL,12.5 µg/mL,MIC [21]: 0.1 µg/mL; MIC [22]: > 100 µg/mL; MIC [23]: 0.5 µg/mL; MIC [24]: 0.05 µg/mL; MIC [25]: 0.05 µg/mL; MIC [26]: ≤ 0.004 µg/mL; MIC [27]: 25
